Here are results for one compound from patent US8921270B2, “Method for pre-emergent weed control using triazine-based herbicide” (Amvac Chemical Corporation, priority 2011, dated 2014).

Type in all cases: in vivo
Data set [1] concerns corn. In words: Crop tolerance (corn) field trial, Laurel, Md., light soil (Example 2). The procedure:
(§1) Several scientific and replicated field research trials were conducted in multiple locations to evaluate weed control and crop tolerance of herbicide compositions containing about 80% by weight of ametryn active ingredient in the form of a water dispersible granule (WDG). The herbicide compositions were applied to the soil surface with or without weeds present at specific intervals i) before planting (preplant), ii) prior to planting and incorporated into the soil (preplant incorporated), and iii) after planting of the corn, but prior to emergence (preemergence).
(§2) Small plot research trials were conducted using a statistical design known as Randomized Complete Block Design (RCBD), which assumes that a population of experimental units can be divided into a number of relatively homogeneous subpopulations or blocks. […] In the analysis, the variation among blocks can be partitioned out of the experimental error (MSE), thereby reducing this quantity and increasing the power of the test. […]
(§3) Efficacy on weeds and crop tolerance evaluations were conducted at specified intervals for each trial. […] Crop tolerance was evaluated at intervals of 7 to 14, 21 to 28, and 42 to 56 days after corn emergence in these trials. […] In an additional trial, efficacy of ametryn at rates of 1.2, 1.6 and 2.4 lb ai/a applied PRE was evaluated on grass and broadleaf weeds at the same intervals as the earlier trials. […]

In another data set the test system is Goosegrass. In words: Weed control field trial, Laurel, Md., light textured soil (Example 4). The following applies: 0.8, 1.6, 2.4 lb ai/a; 14 days preplant, 2 days preplant, PRE; 21 and 35 days after corn emergence. As to the method: as §1, §2, §3
The subject of another data set is Lambsquaters. The data set is described as above. The note with it: 0.8, 1.6, 2.4 lb ai/a; 14 days preplant, 2 days preplant, PRE; 21 and 35 days after corn emergence. The procedure:
as §1, §2, §3

In data set [2] the test system is corn. In words: Corn injury in weed control field trial, Laurel, Md., light textured soil (Example 9). As to the method: as §1
Small plot research trials were conducted using a statistical design known as Randomized Complete Block Design (RCBD), which assumes that a population of experimental units can be divided into a number of relatively homogeneous subpopulations or blocks. The treatments are then randomly assigned to experimental units such that each treatment occurs equally often (usually once) in each block—i.e., each block contains all treatments. Blocks usually represent levels of naturally occurring differences or sources of variation that are unrelated to the treatments. In the analysis, the variation among blocks can be partitioned out of the experimental error (MSE), thereby reducing this quantity and increasing the power of the test. See, Clewer, A. G., and D. H. Scarisbrick. 2001. Practical statistics and experimental design for plant and crop science. John Wiley & Sons Ltd., New York. crop science. Treatment size was typically 4 rows of corn on 30-inch row spacing×30 feet long replicated 3 to 4 times. Preplant, preplant incorporated (PPI), or preemergence (PRE) treatments were uniformly applied with a hand-held backpack sprayer pressurized with compressed air or carbon dioxide (CO2) as the propellant to simulate commercial scale application. Treatments were applied using flat fan nozzle or spray nozzles at from 30 to 35 pounds per square inch (psi) delivering from 15 to 20 gallons of finished spray solution per acre.
Efficacy on weeds and crop tolerance evaluations were conducted at specified intervals for each trial. […] Crop tolerance was evaluated at intervals of 7 to 14, 21 to 28, and 42 to 56 days after corn emergence in these trials. […] The efficacy of ametryn at a rate of 0.8, 1.2, 1.6 and 2.4 lbs ai/a applied 7 to 14 days preplant was evaluated on grass and broadleaf weeds at intervals of 7 to 14, 21 to 28, and 42 to 56 days after corn emergence. […] In an additional trial, efficacy of ametryn at rates of 1.2, 1.6 and 2.4 lb ai/a applied PRE was evaluated on grass and broadleaf weeds at the same intervals as the earlier trials. […]

Regarding `CCNc1nc(NC(C)C)nc(SC)n1` [ametryn, 2-ethylamino-4-isopropylamino-6-methylthio-s-triazine], the figures for the Corn yield result in the data set with corn [1] (even though visual injury was measured at certain times) and with corn [2] (even when minor injury was observed) were “no reduction in yield” and “no negative effect on yield”, respectively. Besides, the Corn injury entry is listed as “non-significant or no injury” with corn [1] (in vivo) and “Minor injury” in the data set on corn [2] (in vivo). Besides, the Percent weed control entry in the data set with Goosegrass and in the data set with Lambsquaters was “significant improvement of weed control over the untreated treatment” each time. Further, in the data set on corn [2] (in vivo), the “Percent corn injury (safety to corn versus commercial standard)” value was “as safe to corn as a commercial standard of isoxaflutole with cyprosulfamide”. Moreover, in the data set on corn [2] (in vivo), the Safety to corn entry was “excellent safety”.
